Experimental data from patent publication US20110306650A1 (Chiesi Farmaceutici S.p.A., priority 2010, published 2011).

Experiment: compatibility with other active ingredients in pharmaceutical formulations
Assay type: physicochemical
Details: especially with formoterol; relative to glycopyrronium bromide

In the case of C[N+]1(C)CCC(OC(=O)C(O)(c2ccccc2)C2CCCC2)C1.[Cl-] (stereo not shown) [glycopyrronium chloride], the “compatibility with other active ingredients” value is reported as “better compatibility”.
